# Experiments:
# [1] = tested on: lambsquarters; test: Test Example 5: herbicidal effect by foliage application, plastic box (Table 20, symbol O); format: in vivo, lambsquarters (Chenopodium album); conditions: amount of applied herbicide 320 g/ha; foliage application after 14-day growth; evaluated three weeks after application
# How it was run: (§1)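 Foliar spray test: emulsion formulation diluted in water to a set application rate, sprayed onto 14-day-old plants raised in diluvial soil at 25° C to 30° C under glass. Both herbicidal effect and crop effect rated visually three weeks later.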
# [2] = tested on: windgrass; test: Test Example 4: herbicidal effect by soil treatment (Table 19, symbol L); format: in vivo, windgrass (Apera spica-venti); conditions: amount of applied herbicide 320 g/ha
# How it was run: (§2)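 Step 1: sow seeds in sterilized diluvial soil, cover ~1.5 cm. Step 2: spray diluted emulsion onto soil surface at predetermined rate. Step 3: greenhouse, 25–30° C, three weeks. Step 4: grade effect on each plant by earlier criteria.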
# [3] = tested on: Italian ryegrass; test: Test Example 4: herbicidal effect by soil treatment (Table 19, symbol K); format: in vivo, Italian ryegrass (Lolium multiflorum); conditions: amount of applied herbicide 320 g/ha
# How it was run: as §2
# [4] = tested on: windgrass; test: Test Example 5: herbicidal effect by foliage application, plastic box (Table 20, symbol L); format: in vivo, windgrass (Apera spica-venti); conditions: amount of applied herbicide 320 g/ha; foliage application after 14-day growth; evaluated three weeks after application
# How it was run: as §1
# [5] = tested on: southern crabgrass; test: Test Example 5: herbicidal effect by foliage application, plastic box (Table 20, symbol F); format: in vivo, southern crabgrass (Digitaria ciliaris); conditions: amount of applied herbicide 320 g/ha; foliage application after 14-day growth; evaluated three weeks after application
# How it was run: as §1
# [6] = tested on: green foxtail; test: Test Example 5: herbicidal effect by foliage application, plastic box (Table 20, symbol G); format: in vivo, green foxtail (Setaria viridis); conditions: amount of applied herbicide 320 g/ha; foliage application after 14-day growth; evaluated three weeks after application
# How it was run: as §1
# [7] = tested on: barnyard grass; test: Test Example 5: herbicidal effect by foliage application, plastic box (Table 20, symbol H); format: in vivo, barnyard grass (Echinochloa crus-galli); conditions: amount of applied herbicide 320 g/ha; foliage application after 14-day growth; evaluated three weeks after application
# How it was run: as §1
# [8] = tested on: late watergrass; test: Test Example 1: herbicidal activity, application before weed generation under submerged conditions (Table 16, symbol A); format: in vivo, late watergrass (Echinochloa oryzicola); conditions: amount of applied herbicide 320 g/ha
# How it was run: (§3)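 Emulsion formulation, water-diluted to set dose, was put onto the flooded surface (4 cm depth, alluvial soil) the same day weeds were sown and 2.5-leaf rice transplanted. After 3 weeks at 25-30 °C under glass, each species was rated 0 (≤5% kill) to 5 (≥90% kill).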
# [9] = tested on: barnyard grass; test: Test Example 4: herbicidal effect by soil treatment (Table 19, symbol H); format: in vivo, barnyard grass (Echinochloa crus-galli); conditions: amount of applied herbicide 320 g/ha
# How it was run: as §2
# [10] = tested on: velvetleaf; test: Test Example 4: herbicidal effect by soil treatment (Table 19, symbol M); format: in vivo, velvetleaf (Abutilon theophrasti); conditions: amount of applied herbicide 320 g/ha
# How it was run: as §2
# [11] = tested on: southern crabgrass; test: Test Example 4: herbicidal effect by soil treatment (Table 19, symbol F); format: in vivo, southern crabgrass (Digitaria ciliaris); conditions: amount of applied herbicide 320 g/ha
# How it was run: as §2
# [12] = tested on: redroot pigweed; test: Test Example 4: herbicidal effect by soil treatment (Table 19, symbol N); format: in vivo, redroot pigweed (Amaranthus retroflexus); conditions: amount of applied herbicide 320 g/ha
# How it was run: as §2
# [13] = tested on: Chinese sprangletop; test: Test Example 3: herbicidal effect by foliage application, Wagner pot (Table 18, symbol D); format: in vivo, chinese sprangletop (Leptochloa chinensis); conditions: 320 g/ha
# How it was run: (§4)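 Plants were sown in alluvial soil held under 0.1–0.5 cm standing water and grown 14 days in a greenhouse at 25–30 °C. An emulsifiable formulation, water-diluted to the set dose, was then sprayed onto the foliage, and effects were scored three weeks later using previously defined criteria.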
# [14] = tested on: rice flat sedge; test: Test Example 3: herbicidal effect by foliage application, Wagner pot (Table 18, symbol E); format: in vivo, rice flat sedge (Cyperus iria); conditions: 320 g/ha
# How it was run: as §4
# [15] = tested on: wild oat; test: Test Example 5: herbicidal effect by foliage application, plastic box (Table 20, symbol I); format: in vivo, wild oat (Avena fatua); conditions: amount of applied herbicide 320 g/ha; foliage application after 14-day growth; evaluated three weeks after application
# How it was run: as §1
# [16] = tested on: oval-leafed pondweed; test: Test Example 1: herbicidal activity, application before weed generation under submerged conditions (Table 16, symbol C); format: in vivo, oval-leafed pondweed (Monochoria vaginalis); conditions: amount of applied herbicide 320 g/ha
# How it was run: as §3
# [17] = tested on: velvetleaf; test: Test Example 5: herbicidal effect by foliage application, plastic box (Table 20, symbol M); format: in vivo, velvetleaf (Abutilon theophrasti); conditions: amount of applied herbicide 320 g/ha; foliage application after 14-day growth; evaluated three weeks after application
# How it was run: as §1
# [18] = tested on: barnyard grass; test: Test Example 3: herbicidal effect by foliage application, Wagner pot (Table 18, symbol H); format: in vivo, barnyard grass (Echinochloa crus-galli); conditions: 320 g/ha
# How it was run: as §4
# [19] = tested on: wild oat; test: Test Example 4: herbicidal effect by soil treatment (Table 19, symbol I); format: in vivo, wild oat (Avena fatua); conditions: amount of applied herbicide 320 g/ha
# How it was run: as §2
# [20] = tested on: chickweed; test: Test Example 5: herbicidal effect by foliage application, plastic box (Table 20, symbol P); format: in vivo, common chickweed (Stellaria media); conditions: amount of applied herbicide 320 g/ha; foliage application after 14-day growth; evaluated three weeks after application
# How it was run: as §1
# [21] = tested on: blackgrass; test: Test Example 5: herbicidal effect by foliage application, plastic box (Table 20, symbol J); format: in vivo, blackgrass (Alopecurus myosuroides); conditions: amount of applied herbicide 320 g/ha; foliage application after 14-day growth; evaluated three weeks after application
# How it was run: as §1
# [22] = tested on: lambsquarters; test: Test Example 4: herbicidal effect by soil treatment (Table 19, symbol O); format: in vivo, lambsquarters (Chenopodium album); conditions: amount of applied herbicide 320 g/ha
# How it was run: as §2
# [23] = tested on: persian speedwell; test: Test Example 5: herbicidal effect by foliage application, plastic box (Table 20, symbol R); format: in vivo, Persian speedwell (Veronica persica); conditions: amount of applied herbicide 320 g/ha; foliage application after 14-day growth; evaluated three weeks after application
# How it was run: as §1
# [24] = tested on: Japanese bulrush; test: Test Example 1: herbicidal activity, application before weed generation under submerged conditions (Table 16, symbol B); format: in vivo, Japanese bulrush (Schoenoplectus juncoides); conditions: amount of applied herbicide 320 g/ha
# How it was run: as §3
# [25] = tested on: green foxtail; test: Test Example 4: herbicidal effect by soil treatment (Table 19, symbol G); format: in vivo, green foxtail (Setaria viridis); conditions: amount of applied herbicide 320 g/ha
# How it was run: as §2
# [26] = tested on: chickweed; test: Test Example 4: herbicidal effect by soil treatment (Table 19, symbol P); format: in vivo, common chickweed (Stellaria media); conditions: amount of applied herbicide 320 g/ha
# How it was run: as §2
# [27] = tested on: Italian ryegrass; test: Test Example 5: herbicidal effect by foliage application, plastic box (Table 20, symbol K); format: in vivo, Italian ryegrass (Lolium multiflorum); conditions: amount of applied herbicide 320 g/ha; foliage application after 14-day growth; evaluated three weeks after application
# How it was run: as §1
# [28] = tested on: blackgrass; test: Test Example 4: herbicidal effect by soil treatment (Table 19, symbol J); format: in vivo, blackgrass (Alopecurus myosuroides); conditions: amount of applied herbicide 320 g/ha
# How it was run: as §2
# [29] = tested on: redroot pigweed; test: Test Example 5: herbicidal effect by foliage application, plastic box (Table 20, symbol N); format: in vivo, redroot pigweed (Amaranthus retroflexus); conditions: amount of applied herbicide 320 g/ha; foliage application after 14-day growth; evaluated three weeks after application
# How it was run: as §1
SMILES,"Herbicidal effect by foliage application, O: lambsquarters [1]","Herbicidal effect by foliage application, L: windgrass [4]","Herbicidal effect by foliage application, F: southern crabgrass [5]","Herbicidal effect by foliage application, G: green foxtail [6]","Herbicidal effect by foliage application, H: barnyard grass [7]","Herbicidal effect, A: late watergrass [8]",herbicidal effect on Chinese sprangletop (D) [13],herbicidal effect on rice flat sedge (E) [14],"Herbicidal effect by foliage application, I: wild oat [15]","Herbicidal effect, C: oval-leafed pondweed [16]","Herbicidal effect by foliage application, M: velvetleaf [17]",herbicidal effect on barnyard grass (H) [18],"Herbicidal effect by foliage application, P: chickweed [20]","Herbicidal effect by foliage application, J: blackgrass [21]","Herbicidal effect by foliage application, R: persian speedwell [23]","Herbicidal effect, B: Japanese bulrush [24]","Herbicidal effect by foliage application, K: Italian ryegrass [27]","Herbicidal effect by foliage application, N: redroot pigweed [29]",also measured
CCCC(=O)Oc1c(C)nn(C)c(=O)c1-c1c(-c2ccc3c(c2)OCCO3)sc2cc(F)c(F)cc12 [5-038],1 (Herbicidal rate of 5% or more and less than 20%),0 (Herbicidal rate of 5% or less (almost no effect)),0 (Herbicidal rate of 5% or less (almost no effect)),0 (Herbicidal rate of 5% or less (almost no effect)),0 (Herbicidal rate of 5% or less (almost no effect)),4 (Herbicidal rate of 70% or more and less than 90%),2 (Herbicidal rate of 20% or more and less than 40%),4 (Herbicidal rate of 70% or more and less than 90%),0 (Herbicidal rate of 5% or less (almost no effect)),4 (Herbicidal rate of 70% or more and less than 90%),3 (Herbicidal rate of 40% or more and less than 70%),2 (Herbicidal rate of 20% or more and less than 40%),5 (Herbicidal rate of 90% or more (almost completely withered)),0 (Herbicidal rate of 5% or less (almost no effect)),5 (Herbicidal rate of 90% or more (almost completely withered)),3 (Herbicidal rate of 40% or more and less than 70%),0 (Herbicidal rate of 5% or less (almost no effect)),2 (Herbicidal rate of 20% or more and less than 40%),"L: windgrass, herbicidal effect grade [2]: 0 (Herbicidal rate of 5% or less (almost no effect)); K: Italian ryegrass, herbicidal effect grade [3]: 0 (Herbicidal rate of 5% or less (almost no effect)); H: barnyard grass, herbicidal effect grade [9]: 0 (Herbicidal rate of 5% or less (almost no effect)); M: velvetleaf, herbicidal effect grade [10]: 0 (Herbicidal rate of 5% or less (almost no effect)); F: southern crabgrass, herbicidal effect grade [11]: 0 (Herbicidal rate of 5% or less (almost no effect)); N: redroot pigweed, herbicidal effect grade [12]: 2 (Herbicidal rate of 20% or more and less than 40%); I: wild oat, herbicidal effect grade [19]: 0 (Herbicidal rate of 5% or less (almost no effect)); O: lambsquarters, herbicidal effect grade [22]: 4 (Herbicidal rate of 70% or more and less than 90%); G: green foxtail, herbicidal effect grade [25]: 0 (Herbicidal rate of 5% or less (almost no effect)); P: chickweed, herbicidal effect grade [26]: 0 (Herbicidal rate of 5% or less (almost no effect)); J: blackgrass, herbicidal effect grade [28]: 0 (Herbicidal rate of 5% or less (almost no effect))"
Cc1nn(C)c(=O)c(-c2c(-c3ccc(F)cc3)sc3c(C)cccc23)c1O [4-100],5 (Herbicidal rate of 90% or more (almost completely withered)),1 (Herbicidal rate of 5% or more and less than 20%),0 (Herbicidal rate of 5% or less (almost no effect)),0 (Herbicidal rate of 5% or less (almost no effect)),0 (Herbicidal rate of 5% or less (almost no effect)),3 (Herbicidal rate of 40% or more and less than 70%),0 (Herbicidal rate of 5% or less (almost no effect)),0 (Herbicidal rate of 5% or less (almost no effect)),0 (Herbicidal rate of 5% or less (almost no effect)),1 (Herbicidal rate of 5% or more and less than 20%),5 (Herbicidal rate of 90% or more (almost completely withered)),2 (Herbicidal rate of 20% or more and less than 40%),5 (Herbicidal rate of 90% or more (almost completely withered)),3 (Herbicidal rate of 40% or more and less than 70%),5 (Herbicidal rate of 90% or more (almost completely withered)),3 (Herbicidal rate of 40% or more and less than 70%),3 (Herbicidal rate of 40% or more and less than 70%),4 (Herbicidal rate of 70% or more and less than 90%),"Herbicidal effect by soil treatment, L: windgrass [2]: 0 (Herbicidal rate of 5% or less (almost no effect)); Herbicidal effect by soil treatment, K: Italian ryegrass [3]: 0 (Herbicidal rate of 5% or less (almost no effect)); Herbicidal effect by soil treatment, H: barnyard grass [9]: 0 (Herbicidal rate of 5% or less (almost no effect)); Herbicidal effect by soil treatment, M: velvetleaf [10]: 3 (Herbicidal rate of 40% or more and less than 70%); Herbicidal effect by soil treatment, F: southern crabgrass [11]: 0 (Herbicidal rate of 5% or less (almost no effect)); Herbicidal effect by soil treatment, N: redroot pigweed [12]: 3 (Herbicidal rate of 40% or more and less than 70%); Herbicidal effect by soil treatment, I: wild oat [19]: 0 (Herbicidal rate of 5% or less (almost no effect)); Herbicidal effect by soil treatment, O: lambsquarters [22]: 4 (Herbicidal rate of 70% or more and less than 90%); Herbicidal effect by soil treatment, G: green foxtail [25]: 1 (Herbicidal rate of 5% or more and less than 20%); Herbicidal effect by soil treatment, P: chickweed [26]: 3 (Herbicidal rate of 40% or more and less than 70%); Herbicidal effect by soil treatment, J: blackgrass [28]: 0 (Herbicidal rate of 5% or less (almost no effect))"

# — patent US20230085307A1, “PYRIDAZINONE COMPOUND AND HERBICIDE” (NISSAN CHEMICAL CORPORATION, priority 2019, published 2023)
